The test system of test [1] is CYP17 enzyme. In words: CYP17 enzyme ELISA in mice prostate cancer model. Format: in vivo. The conditions noted are these: 5 mg/kg i.p., 5 days a week, ELISA of tissue (Mice testis). The method, then: (§1) A total of 16 mice from the TRAMP/FVB background ([…], male, average 45 days, average weight […], mice with prostate cancer) were taken and divided into 2 groups with 8 animals in each group. One group of mice was given a drug in 0.2 ml of DMSO and phosphate-buffered saline (1:10) ratio (5 mg/kg body weight, i.p., 5 days a week). The control group animals were treated with 0.2 ml of DMSO and phosphate-buffered saline (1:10) ratio. A total of eight mice, four animals from each group, were examined at 13 weeks of age, and the remaining animals from each group were examined at 20 weeks for prostate tumour development. Treatment was stopped 24 h before killing the animals.
BioSource 2704060 96 assay kit is a sandwich enzyme immunoassay for in vitro quantitative measurement of CYP17 enzyme activity in mouse tissue homogenates, cell lysates, cell culture supernatant, and other biological fluids. Tested tissues were rinsed in ice-cold PBS to remove excess blood and weighed before homogenisation. The tissues were minced and homogenised in fresh lysis buffer with a glass homogeniser. (catalog: IS007, different lysis buffer needs to be chosen based on subcellular location of the target protein) (w:v = 1:20–1:50, e.g. 1 ml lysis buffer is added in 20–50 mg tissue sample) The resulting suspension was sonicated with an ultrasonic cell disrupter till the solution was clarified. The homogenates were centrifuged for 5 min at 10,000 × g, and the supernatant was collected. An Aliquot was assayed and stored at ≤ −20 °C.
The assay sample and standard were incubated together with CYP-HRP conjugate in an appropriate number of microplates pre-coated with an antibody specific for the CYP17 enzyme for 1 h. After the incubation period, the wells were decanted and washed five times. The wells were then incubated with a substrate for the HRP enzyme. […] Colour intensity was measured spectrophotometrically at 450 nm in a microplate reader. […]
Assay procedures: Wells for a standard, blank, and sample were prepared. […] The absorbance was measured immediately at 450 nm.

Test [2] has as its system HS 578 T. In words: NCI-60 SRB screen.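 On IC50: half-maximal inhibitory concentration read as cell viability unlike GI50 net growth.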 The test is classed as cell-based, human. The conditions noted are these: five dose.
Test [3] deals with WI-38 human cell line. Put plainly: In vitro cytotoxicity on WI-38 human cell line (MTT). The test is classed as cell-based. The settings on record: WI-38 normal human cell line. The protocol:
Cell Line cells were obtained from American Type Culture Collection and were cultured using DMEM (Invitrogen/Life Technologies) supplemented with 10% FBS (Hyclone), 10 µg/ml of insulin (Sigma), and 1% penicillin-streptomycin. All of the other chemicals and reagents were obtained from Sigma or Invitrogen. Plate cells were incubated (cells density 1.2–1.8 × 10,000 cells/well) in a volume of 100 µL complete growth medium and 100 ul of the tested compound per well in a 96-well plate for 24 h before the MTT assay. The cultures were removed from the incubator into a laminar flow hood or other sterile work area followed by the addition of reconstituted MTT in an amount equal to 10% of the culture medium volume, then incubated for an additional 2 h. After the incubation period, cultures were removed from the incubator, and the resulted formazan crystals were dissolved by adding an amount of MTT solubilisation solution [M-8910] equal to the original culture medium volume, then the absorbance at a wavelength of 570 nm was measured. Finally, the IC50 of the tested compound compared to the reference was calculated using GraphPad Prism software.

Test [4] concerns PC-3 cells. In words: Annexin V-FITC apoptosis assay. Format: cell-based, human. The conditions noted are these: PC-3, 2.34 µM, 24 h. The method, then:
PC-3 cells were placed in a 6-well plate at 1 × 10^5 conc. of cells per well, then incubated for 24 h. Afterward, the cells were treated with 2.34 µM of compound 5c or (0.1% DMSO) for 24 h, then harvested, washed with PBS, and stained with annexin V-FITC and PI in binding buffer ([…], […], and […] at pH 7.4) for 15 min at room temperature in the dark, then analysed by the flow cytometer.

The test system of test [5] is plasma testosterone. In words: Testosterone ELISA assay in mice prostate cancer model. Format: in vivo. The method, then: as §1
The BioVendor mouse/rat testosterone ELISA assay is a competitive immunoassay for the measurement of testosterone in rat and mouse serum or plasma based on the principle of competitive binding. An unknown amount of testosterone present in the sample (plasma or serum) and a known amount of testosterone conjugated to horseradish peroxidase compete for the binding sites of testosterone antiserum coated to the wells of a microplate. The sample was incubated with the microplate for 1 h, then washed four times. The HRP substrate solution was added followed by the stop solution. Colour change has been observed, and the optical density was measured at 450 nm.
Assay procedures: Sufficient number of microplate wells were prepared to accommodate standard and samples in duplicates. The standard, sample, and control (10 µL each) were dispensed with new disposable tips into appropriate wells. Incubation buffer 100 µL was dispensed into each well. Afterward, enzyme conjugate (50 µL) was added to each well and incubated for 60 min at room temperature on a microplate mixer. The content of the wells was discarded, and the wells were rinsed 4 times with diluted wash solution (300 µL per well). The substrate solution (200 µL) was added to each well and incubated in the dark without shaking for 30 min. The reaction was stopped by adding a stop solution (2 N hydrochloric acid solution, 50 µL) to each well. The absorbance of each well was determined at 450 nm.

Where “and” joins values, the source holds several entries; their conditions need not be identical. Equal values may be shown once.

Regarding `N#CC1C(=O)NC(c2ccccc2[N+](=O)[O-])c2sc3c(F)cccc3c21` (stereo not drawn) [Compound 5c, 4-Cyano-8-fluoro-1-(2-nitrophenyl)-1,2-dihydro[1]benzothieno[2,3-c] pyridin-3(4H)-one], the “CYP17 enzyme aver. conc.” value in test [1] is 15.8 nM and 15.80 nM and 15.80 ± 0.20 nM. In test [2] (Homo sapiens), the GI50 came to 18.1 µM and the IC50 is over 100 µM. This molecule also gave a TGI in test [2] of 100 µM. Besides, the IC50 in test [3] was found to be 34.1 µM. For the same molecule, in test [4], the “Apoptosis total (% of cells)” value was 42.55%, the “Early apoptosis (% of cells)” value stood at 1.66%, the “Late apoptosis (% of cells)” value is given as 26.67% and the “Necrosis (% of cells)” value is reported as 14.22%. In test [4], the “elevation in necrosis vs control” value came out at 7.68 fold, the “increase in early apoptotic cells vs control” value is reported as 6.64 fold, the “increase in late apoptotic cells vs control” value is recorded as 140.36 fold and the “total increase vs control” value is 18.58 fold. Further, in test [5], the “potency relative to abiraterone (testosterone inhibition)” value was 1.1 folds. Moreover, in test [5] (5 mg/kg i.p., 5 days a week, ELISA, 5 mg/kg), the “Plasma testosterone aver. conc.” value is 12.26 nM and 12.26 ± 0.17 nM.

The values are drawn from publication PMC8330742, “New benzothieno[2,3-c]pyridines as non-steroidal CYP17 inhibitors: design, synthesis, anticancer screening, apoptosis induction, and in silico ADME profile studies” (Journal of Enzyme Inhibition and Medicinal Chemistry, 2021).
